Measured values as given in the supplement of paper PMC10307832.

Legend:
Assay in all cases: relative viability (nuclei count vs DMSO), 5 days (fraction); higher = more cells survive
[1] = compound: CC1(COc2ccc3c(c2)ncn3-c2ccc3cccc(N4CCC(N)CC4)c3n2)COC1 [Crenolanib] + O=C(c1cc(Cc2n[nH]c(=O)c3ccccc23)ccc1F)N1CCN(C(=O)C2CC2)CC1 [Olaparib] (partner 8 µM)
In short: (§1)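 Relative viability was taken as the ratio of nuclei in treated wells to nuclei in vehicle wells. Lung cancer cell lines in 1536-well plates received compounds by pin tool one day after seeding, either one drug alone or a fixed anchor-drug dose plus five library-drug doses (not always all listed) in √10 steps. Nuclei were counted on 4× images after 5 days of treatment, and values are medians of duplicate plates.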

[2] = compound: O=C1NC(=O)[C@@H](c2cn3c4c(cccc24)CCC3)[C@@H]1c1c[nH]c2ccccc12 [Tivantinib] + O=C(CCCCCCC(=O)Nc1ccccc1)NO [Vorinostat] (partner 1 µM)
In short: as §1

[3] = compound: CC1(COc2ccc3c(c2)ncn3-c2ccc3cccc(N4CCC(N)CC4)c3n2)COC1 [Crenolanib] + Nc1nc2[nH]cc(CCc3ccc(C(=O)N[C@@H](CCC(=O)O)C(=O)O)cc3)c2c(=O)[nH]1 [Pemetrexed] (partner 0.2 µM)
In short: as §1

[4] = compound: O=C1NC(=O)[C@@H](c2cn3c4c(cccc24)CCC3)[C@@H]1c1c[nH]c2ccccc12 [Tivantinib] + CS(=O)(=O)N1CCN(Cc2cc3nc(-c4cccc5[nH]ncc45)nc(N4CCOCC4)c3s2)CC1 [Pictilisib] (partner 1 µM)
In short: as §1

Cell Line | relative viability ([1]; first compound 0.01 µM) | relative viability ([1]; first compound 0.03162 µM) | relative viability ([1]; first compound 0.1 µM) | relative viability ([1]; first compound 0.3162 µM) | relative viability ([1]; first compound 1 µM) | relative viability ([2]; first compound 0.01 µM) | relative viability ([2]; first compound 0.03162 µM) | relative viability ([2]; first compound 0.1 µM) | relative viability ([2]; first compound 0.3162 µM) | relative viability ([3]; first compound 0.01 µM) | relative viability ([3]; first compound 0.03162 µM) | relative viability ([3]; first compound 0.1 µM) | relative viability ([3]; first compound 0.3162 µM) | relative viability ([3]; first compound 1 µM) | relative viability ([4]; first compound 0.01 µM) | relative viability ([4]; first compound 0.03162 µM) | relative viability ([4]; first compound 0.1 µM) | relative viability ([4]; first compound 0.3162 µM)
LXF-289 | 1.08 | 0.954 | 1 | 1.16 | 1.08 | 0.756 | 0.725 | 0.733 | 0.778 | 0.853 | 0.905 | 0.865 | 0.922 | 0.897 | 0.815 | 0.769 | 0.703 | 0.817
NCI-H23 | 0.311 | 0.278 | 0.282 | 0.347 | 0.341 | 0.679 | 0.527 | 0.624 | 0.671 | 0.761 | 0.62 | 0.644 | 0.817 | 0.615 | 0.43 | 0.324 | 0.533 | 0.382
NCI-H322M | 0.741 | 0.779 | 0.651 | 0.806 | 0.795 | 0.903 | 0.833 | 0.861 |  | 0.597 | 0.583 | 0.631 | 0.6 | 0.605 | 0.505 | 0.481 | 0.467 | 0.4
NCI-H522 | 0.581 | 0.676 | 0.639 | 0.591 | 0.62 | 0.906 | 0.754 | 0.973 | 0.548 | 0.976 | 1.19 | 1.06 | 1.06 | 0.738 |  |  |  | 
NCI-H727 | 0.678 | 0.652 | 0.646 | 0.627 | 0.847 | 1.11 | 1.22 | 1.35 |  |  |  |  |  |  | 0.36 | 0.368 | 0.447 | 
NCI-H1299 | 0.965 | 0.921 | 0.916 | 0.978 | 0.935 |  |  |  |  |  |  |  |  |  | 0.9 | 0.857 | 0.695 | 0.807
NCI-H1563 |  |  |  |  |  |  |  |  |  | 0.736 | 0.679 | 0.711 | 0.759 | 0.742 | 0.608 | 0.6 | 0.651 | 0.674
NCI-H1648 | 1.08 |  | 0.717 | 0.899 | 0.853 |  | 0.445 | 0.528 | 0.272 | 0.742 |  | 0.821 | 0.699 | 0.716 |  |  |  | 
NCI-H1703 | 0.376 | 0.383 | 0.175 | 0.242 | 0.192 |  |  |  |  |  |  |  |  |  | 0.215 | 0.24 | 0.236 | 0.228
NCI-H1792 | 0.439 | 0.397 | 0.334 | 0.757 | 0.384 |  |  |  |  | 0.738 | 0.853 | 0.8 | 0.968 | 0.803 | 0.343 | 0.235 | 0.288 | 0.186
NCI-H2342 | 0.445 | 0.484 | 0.411 | 0.445 | 0.494 | 0.739 | 0.766 | 0.788 | 0.614 | 0.749 | 0.72 | 0.691 | 0.771 | 0.754 |  |  |  | 
SW 900 | 0.925 |  | 0.8 | 0.959 | 0.979 | 0.501 | 0.438 | 0.593 | 0.444 | 0.502 |  | 0.48 | 0.509 | 0.484 |  |  |  | 
